Results on 2 compounds are retold here after patent publication US20130143742A1, “HERBICIDAL COMPOSITION” (SUMITOMO CHEMICAL COMPANY, LIMITED, priority 2011, published 2013).

Structures are written as SMILES. Where a name gives a salt, the structure may show the parent alone.

The test system of assay [1] is barnyardgrass (Echinochloa crus-galli). Briefly: Example 4: herbicidal activity, soil treatment, weed sown 9 days after treatment. Particulars: score 0 to 100; 1,000 g/ha; 29 days after the chemical treatment (20 days after sowing). The format is in vivo. The procedure: (§1) Plastic pots each having a diameter of 24 cm and a height of 21 cm were filled with the soil. A water dilution of a glyphosate potassium salt (liquid formulation containing 48% of a glyphosate potassium salt, manufactured by Nissan Chemical Industries, Ltd. under the trade name of Roundup Maxload) was prepared. A mixed solution of a water dilution of a flumioxazin water dispersible granule (water dispersible granule containing 51% of flumioxazin, manufactured by Valent USA Corporation under the trade name of Valor SX) and a water dilution of a saflufenacil was prepared. A mixed solution of a water dilution of a glyphosate potassium salt, a water dilution of a flumioxazin water dispersible granule and a water dilution of Saflufenacil was prepared. Each of the solutions thus prepared above was uniformly sprayed over the pots using a sprayer in an amount of 500 L/ha. The water dilution of saflufenacil was prepared by dissolving a predetermined amount of saflufenacil in acetone containing 2% (w/v) of Tween 20 (surfactant, manufactured by Tokyo Chemical Industry Co., Ltd.) and diluting the solution with water so that the acetone concentration will be 10 volume %.
(§2) After a chemical treatment, the pots were put in a greenhouse. […]
Seedlings of the plant were cultivated in the greenhouse and, 29 days after the chemical treatment (20 days after sowing), herbicidal activity was evaluated.

Assay [2] concerns ivyleaf morningglory (Ipomoea hederacea). Briefly: Example 3: herbicidal activity, soil treatment, weed sown 21 days after treatment. The format is in vivo. The settings on record: score 0 to 100; 20 g/ha; 45 days after the chemical treatment (24 days after sowing). The procedure:
as §1, with “of saflufenacil” for “of a glyphosate potassium salt (liquid formulation containing 48% of a glyphosate potassium salt, manufactured by Nissan Chemical Industries, Ltd. under the trade name of Roundup Maxload)”, “a glyphosate potassium salt (liquid formulation containing 48% of a glyphosate potassium salt, manufactured by Nissan Chemical Industries, Ltd. under the trade name of Roundup Maxload)” for “a saflufenacil”, “of saflufenacil,” for “of a glyphosate potassium salt,”, “of a glyphosate potassium salt” for “of Saflufenacil”
as §2
Seedling of the plant were cultivated in the greenhouse and, […] after the chemical treatment (24 days after sowing), herbicidal activity was evaluated.

For the compound `O=C(O)CNCP(=O)(O)O` [Glyphosate potassium salt, glyphosate-potassium], in assay [1], the “Herbicidal activity Barnyardgrass” value was found to be 0. On to `CC(C)N(C)S(=O)(=O)NC(=O)c1cc(-n2c(=O)cc(C(F)(F)F)n(C)c2=O)c(F)cc1Cl` [Saflufenacil, N′-{2-chloro-4-fluoro-5-[1,2,3,6-tetrahydro-3-methyl-2,6-dioxo-4-(trifluoromethyl)pyrimidin-1-yl]benzoyl}-N-isopropyl-N-methylsulfamide], for which the “Herbicidal activity Ivyleaf morningglory” value in assay [2] amounted to 45.
